Data set [1] addresses Mutant type EZH2(Y641F) (Homo sapiens (Human), UniProt Q15910, Y641F). Put plainly: AlphaLISA, mutant type PRC2 complex EZH2(Y641F). The format is biochemical. The settings on record: read-out: Mutant type EZH2(Y641F) IC50 Nanomoles per Liter. A general note: In Alpha technology, singlet oxygen from a donor bead excites a nearby acceptor bead.
Data set [2] concerns the target Mutant type EZH2(A677G) (Homo sapiens (Human), UniProt Q15910, A677G). Put plainly: AlphaLISA, mutant type PRC2 complex EZH2(A677G). The class given is biochemical.
The target of data set [3] is Mutant type EZH2(Y641N) (Homo sapiens (Human), UniProt Q15910, Y641N). Put plainly: AlphaLISA, mutant type PRC2 complex EZH2(Y641N). The format is biochemical. Conditions: read-out: Mutant type EZH2(Y641N) IC50 Nanomoles per Liter.
Chain of Mutant type EZH2(Y641N) (Q15910 whole entry Y641N): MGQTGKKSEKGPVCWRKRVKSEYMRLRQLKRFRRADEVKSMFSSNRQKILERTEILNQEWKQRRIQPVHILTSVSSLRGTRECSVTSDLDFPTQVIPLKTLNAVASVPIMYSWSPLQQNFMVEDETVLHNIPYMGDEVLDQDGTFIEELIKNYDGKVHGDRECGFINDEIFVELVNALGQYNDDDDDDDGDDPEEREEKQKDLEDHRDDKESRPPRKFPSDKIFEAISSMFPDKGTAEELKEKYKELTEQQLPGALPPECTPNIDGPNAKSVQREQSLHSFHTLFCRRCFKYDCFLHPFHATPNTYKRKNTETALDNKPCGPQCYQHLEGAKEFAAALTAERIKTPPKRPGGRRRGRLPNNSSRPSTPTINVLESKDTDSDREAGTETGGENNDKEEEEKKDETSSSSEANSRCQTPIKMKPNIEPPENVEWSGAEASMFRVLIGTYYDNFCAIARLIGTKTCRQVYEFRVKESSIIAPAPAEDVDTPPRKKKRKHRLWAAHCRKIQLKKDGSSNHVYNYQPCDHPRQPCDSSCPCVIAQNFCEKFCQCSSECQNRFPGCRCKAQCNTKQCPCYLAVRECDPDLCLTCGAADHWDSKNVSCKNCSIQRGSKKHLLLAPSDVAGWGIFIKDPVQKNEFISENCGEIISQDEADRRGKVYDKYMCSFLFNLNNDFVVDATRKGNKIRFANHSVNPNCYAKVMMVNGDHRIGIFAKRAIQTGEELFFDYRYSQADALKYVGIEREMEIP
Chain of Mutant type EZH2(Y641N) (O75530 whole entry partner): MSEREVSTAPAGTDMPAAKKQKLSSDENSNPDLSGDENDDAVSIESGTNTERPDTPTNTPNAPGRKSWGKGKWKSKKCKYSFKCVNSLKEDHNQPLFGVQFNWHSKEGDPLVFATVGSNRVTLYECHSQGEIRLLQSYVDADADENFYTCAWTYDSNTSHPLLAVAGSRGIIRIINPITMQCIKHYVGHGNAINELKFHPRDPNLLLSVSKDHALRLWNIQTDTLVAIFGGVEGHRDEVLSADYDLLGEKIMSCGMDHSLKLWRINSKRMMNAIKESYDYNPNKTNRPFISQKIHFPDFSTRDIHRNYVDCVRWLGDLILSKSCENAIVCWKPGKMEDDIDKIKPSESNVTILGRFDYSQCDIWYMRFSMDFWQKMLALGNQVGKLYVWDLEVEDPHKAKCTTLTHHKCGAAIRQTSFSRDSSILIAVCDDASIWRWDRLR
Chain of Mutant type EZH2(Y641N) (Q15022 whole entry partner): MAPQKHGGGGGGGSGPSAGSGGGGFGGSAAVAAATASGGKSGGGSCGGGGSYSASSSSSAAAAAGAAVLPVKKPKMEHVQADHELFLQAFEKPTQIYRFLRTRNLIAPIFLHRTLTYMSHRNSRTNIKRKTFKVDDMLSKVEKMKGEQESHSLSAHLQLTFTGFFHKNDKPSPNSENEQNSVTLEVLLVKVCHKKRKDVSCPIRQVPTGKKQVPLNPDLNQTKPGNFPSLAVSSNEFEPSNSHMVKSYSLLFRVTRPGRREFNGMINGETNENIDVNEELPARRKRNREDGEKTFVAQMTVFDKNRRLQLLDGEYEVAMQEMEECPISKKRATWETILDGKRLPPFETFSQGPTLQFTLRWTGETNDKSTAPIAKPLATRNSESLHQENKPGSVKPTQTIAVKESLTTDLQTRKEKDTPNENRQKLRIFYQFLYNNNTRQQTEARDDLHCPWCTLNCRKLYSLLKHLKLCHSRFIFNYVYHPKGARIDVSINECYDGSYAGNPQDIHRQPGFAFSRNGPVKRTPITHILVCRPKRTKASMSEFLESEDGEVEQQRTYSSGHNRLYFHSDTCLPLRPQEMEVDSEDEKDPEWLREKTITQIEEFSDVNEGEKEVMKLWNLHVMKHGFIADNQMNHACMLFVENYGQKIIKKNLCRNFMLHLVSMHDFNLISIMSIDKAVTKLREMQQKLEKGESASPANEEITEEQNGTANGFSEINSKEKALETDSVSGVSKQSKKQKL
Chain of Mutant type EZH2(Y641N) (Q09028 whole entry partner): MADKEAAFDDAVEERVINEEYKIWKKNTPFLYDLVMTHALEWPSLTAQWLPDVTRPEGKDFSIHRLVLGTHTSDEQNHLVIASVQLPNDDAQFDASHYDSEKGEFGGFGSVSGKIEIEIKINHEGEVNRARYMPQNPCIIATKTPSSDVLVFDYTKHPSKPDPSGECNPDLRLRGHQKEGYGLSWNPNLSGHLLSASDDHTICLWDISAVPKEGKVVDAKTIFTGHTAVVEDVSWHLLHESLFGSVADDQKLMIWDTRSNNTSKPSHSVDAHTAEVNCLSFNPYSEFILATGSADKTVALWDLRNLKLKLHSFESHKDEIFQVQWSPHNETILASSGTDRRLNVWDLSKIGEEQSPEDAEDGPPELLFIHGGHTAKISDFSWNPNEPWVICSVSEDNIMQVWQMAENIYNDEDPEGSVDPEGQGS
Chain of Mutant type EZH2(Y641N) (Q6ZN18 whole entry partner): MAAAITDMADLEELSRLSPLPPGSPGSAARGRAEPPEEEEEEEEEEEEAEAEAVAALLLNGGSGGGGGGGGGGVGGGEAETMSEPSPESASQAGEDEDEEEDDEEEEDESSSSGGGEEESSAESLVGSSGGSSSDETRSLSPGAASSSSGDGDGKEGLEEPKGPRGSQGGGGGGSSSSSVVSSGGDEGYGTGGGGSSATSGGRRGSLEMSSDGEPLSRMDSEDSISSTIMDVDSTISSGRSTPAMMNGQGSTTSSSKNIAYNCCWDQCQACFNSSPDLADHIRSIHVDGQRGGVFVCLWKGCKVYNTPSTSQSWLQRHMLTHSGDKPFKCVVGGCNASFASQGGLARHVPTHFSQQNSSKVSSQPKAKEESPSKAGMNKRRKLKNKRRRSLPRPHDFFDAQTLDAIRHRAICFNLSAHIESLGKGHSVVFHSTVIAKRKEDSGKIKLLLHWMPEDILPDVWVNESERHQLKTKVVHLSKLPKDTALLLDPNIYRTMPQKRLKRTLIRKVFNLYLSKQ
The test system of data set [4] is human diffuse large cell lymphoma B lymphocytes (Pfeiffer cell). Put plainly: Pfeiffer cell proliferation, Calcein AM staining. The class given is cell-based.
Source text: The diffuse large cell lymphoma B lymphocytes (Pfeiffer cells) were collected and counted when growing well.
Data set [5] concerns human diffuse large B-cell lymphoma cells (Karpas 422 cell). The data set is described as follows: Karpas 422 cell proliferation, Calcein AM staining. The format is cell-based.
Data set [6] has as its target wild-type EZH2 (Homo sapiens (Human), UniProt Q15910). The data set is described as follows: radiometric assay, activity to wild-type EZH2 of PRC2.
Procedure: 25 μL of reaction solution was transferred to a scintillation plate, which was incubated at room temperature for 1 hour (h) and washed with deionized water and 0.1% Tween 20 for three times. A PerkinElmer liquid scintillation/luminescence counter was used to read the value, and GraphPad Prism 5 was used to calculate the median inhibitory concentration (IC50) of the compounds.
A short description of data set [7]: Pharmacokinetic experiment in rats. The settings on record: for AUC / Cmax / bioavailability: male, SD, rat, plasma, rats; for AUC: read-out: Area Curve (AUC, ng/mL · h); for half-life: male, SD, rat, plasma; rats, Intravenous-Dose 4 mg/kg; read-out: Half life T1/2, h) (converted); for Cmax: read-out: Blood Drug level (Cmax, ng/mL); for bioavailability: oral 20 mg/kg vs intravenous 4 mg/kg, read-out: Bioavailability (P %). The class given is in vivo, SD rats. How it is done:
A certain amount of compound was weighted and dissolved in 0.1% Tween under vortex and ultrasound, and 0.5% carboxymethyl cellulose sodium (CMC-NA) solution was added to form a uniform solution.

[8] abbreviates: read-out: Mutant type EZH2(A677G) IC59 Nanomoles per Liter.
Setting [9] is: Homo sapiens, Pfeiffer, data of 14th day, read-out: Pfeiffer Proliferation IC50 Nanomoles per Liter.
The mark [10] stands for this setting: Homo sapiens, KARPAS-422, data of 14th day, read-out: Karpas422 Proliferation IC50 Nanomoles per Liter.
Where [11] appears, read: read-out: Wild-type EZH2 IC50 Nanomoles per Liter.

We go through 11 compounds from patent publication US12473298B2, “Amide compounds, preparation method therefor, and use thereof in the medical field” (Shanghai Synergy Pharmaceutical Sciences Co., Ltd., priority 2019, dated 2025).

The structures appear in SMILES notation. Like-named read-outs stand apart in the source and are kept apart here.

Chain of wild-type EZH2 (Q15910 whole entry): as the sequence (Q15910 whole entry Y641N) above, with N641Y counted along it
Chain of wild-type EZH2 (O75530 whole entry partner): as the sequence (O75530 whole entry partner) above
Chain of wild-type EZH2 (Q15022 whole entry partner): as the sequence (Q15022 whole entry partner) above
Chain of Mutant type EZH2(Y641F) (Q15910 whole entry Y641F): as the sequence (Q15910 whole entry Y641N) above, with N641F counted along it
Chain of Mutant type EZH2(Y641F) (O75530 whole entry partner): as the sequence (O75530 whole entry partner) above
Chain of Mutant type EZH2(Y641F) (Q15022 whole entry partner): as the sequence (Q15022 whole entry partner) above
Chain of Mutant type EZH2(Y641F) (Q09028 whole entry partner): as the sequence (Q09028 whole entry partner) above
Chain of Mutant type EZH2(Y641F) (Q6ZN18 whole entry partner): as the sequence (Q6ZN18 whole entry partner) above
Chain of Mutant type EZH2(A677G) (Q15910 whole entry A677G): as the sequence (Q15910 whole entry Y641N) above, with N641Y, A677G counted along it
Chain of Mutant type EZH2(A677G) (O75530 whole entry partner): as the sequence (O75530 whole entry partner) above
Chain of Mutant type EZH2(A677G) (Q15022 whole entry partner): as the sequence (Q15022 whole entry partner) above
Chain of Mutant type EZH2(A677G) (Q09028 whole entry partner): as the sequence (Q09028 whole entry partner) above
Chain of Mutant type EZH2(A677G) (Q6ZN18 whole entry partner): as the sequence (Q6ZN18 whole entry partner) above

For `CCN(c1cc(-c2ccc3c(c2)NC(=O)C32CCNCC2)cc(C(=O)NCc2c(C)cc(C)[nH]c2=O)c1C)C1CCSCC1` [Example 97, N-((4,6-Dimethyl-2-oxo-1,2-dihydropyridin-3-yl)methyl)-3-(ethyl(tetrahydro-2H-thiapyran-4-yl)amino)-2-methyl-5-(2-oxospiro[dihydroindole-3,4′-piperidine]-6-yl)benzamide], the IC50 is 0.59 nM in data set [1]; 0.38 nM in data set [2] (setting [8]); 0.37 nM in data set [3]; 1.53 nM in data set [4] (setting [9]); 2.7 nM in data set [5] (setting [10]); 0.85 nM in data set [6] (setting [11]).

`CCN(c1cc(-c2ccc3c(c2)NC(=O)C32CCN(C(C)=O)CC2)cc(C(=O)NCc2c(C)cc(C)[nH]c2=O)c1C)C1CCOCC1` [Example 88]: the IC50 is 0.61 nM in data set [1]; 0.51 nM in data set [2] (setting [8]); 0.42 nM in data set [3]; 1.56 nM in data set [4] (setting [9]); 2.76 nM in data set [5] (setting [10]); 0.96 nM in data set [6].

With `CCN(c1cc(-c2ccc3c(c2)C2(CC=C(F)CC2)C(=O)N3)cc(C(=O)NCc2c(C)cc(C)[nH]c2=O)c1C)C1CCOCC1` (stereo not shown) [Example 118, N-((4,6-dimethyl-2-carbonyl-1,2-dihydropyridin-3-yl)methyl)-3-(ethyl(tetrahydro-2H-pyran-4-yl)amino)-5-(4-fluoro-2′-carbonylspiro[cyclohexano-1,3′-dihydroindole]-3-ene-5′-yl)-2-methylbenzamide], the IC50 is 0.58 nM in data set [1]; 0.45 nM in data set [2]; 0.32 nM in data set [3]; 1.05 nM in data set [4] (Homo sapiens, Pfeiffer, read-out: Pfeiffer Proliferation IC50 Nanomoles per Liter (nM)); 1.68 nM in data set [5] (Homo sapiens, KARPAS-422, read-out: Karpas422 Proliferation IC50 Nanomoles per Liter (nM)); 0.91 nM in data set [6].

As a reminder, the bioavailability is the share of a dose that reaches the circulation, judged against a reference dose that is usually intravenous. Consider `CCN(c1cc(-c2ccc3c(c2)NC(=O)C32CCOCC2)cc(C(=O)NCc2c(OC)cc(C)[nH]c2=O)c1C)C1CCOCC1OC` (stereo not shown) [Example 112, 3-(Ethyl(3-methoxytetrahydro-2H-pyran-4-yl)amino)-N-((4-methoxy-6-methyl-2-oxo-1,2-dihydropyridin-3-yl)methyl)-2-methyl-5-(2-oxo-2′,3′,5′,6′-tetrahydrospiro[dihydroindole-3,4′-pyran]-6-yl)benzamide], for which the IC50 in data set [1] was 0.82 nM; in data set [2] (setting [8]) it was 0.51 nM; in data set [3], 0.48 nM; in data set [4] (setting [9]) it was 4.17 nM; in data set [5] (setting [10]) it was 5.78 nM; in data set [6] (setting [11]), 1.02 nM. Also, the AUC in data set [7] (Intravenous-Dose 4 mg/kg) was found to be 0.936 µg·h/mL; in data set [7] (Oral-Dose 20 mg/kg) it was 1.19 µg·h/mL. Moreover, the half-life in data set [7] is 1.26 h. For the same compound, in data set [7] (Oral-Dose 20 mg/kg), the Cmax is 494 ng/mL. The bioavailability in data set [7] is 25.5%.

Regarding `CCN(c1cc(-c2ccc3c(c2)N(C(C)C(C)C)CC32CCOCC2)c(Cl)c(C(=O)NCc2c(C)cc(C)[nH]c2=O)c1C)C1CCOCC1` (stereo not shown) [Example 55, 2-chloro-N-((4,6-dimethyl-2-oxo-1,2-dihydropyridin-3-yl)methyl)-5-(ethyl(tetrahydro-2H-pyran-4-yl)amino)-6-methyl-3-(1-(3-methylbutyl-2-yl)-2′,3′,5′,6′-tetrahydrospiro[dihydroindole-3,4′-pyran]-6-yl)benzamide], the IC50 is 0.58 nM in data set [1]; 0.42 nM in data set [2] (setting [8]); 0.3 nM in data set [3]; 0.65 nM in data set [4] (setting [9]); 0.97 nM in data set [5] (setting [10]); 0.63 nM in data set [6]. The AUC in data set [7] (Intravenous-Dose 4 mg/kg) was 0.933 µg·h/mL; in data set [7] (Oral-Dose 20 mg/kg), 1.27 µg·h/mL. Moreover, the half-life in data set [7] is 1.53 h. The Cmax in data set [7] (Oral-Dose 20 mg/kg) is 438 ng/mL. Moreover, the bioavailability in data set [7] was 27.1%.

`CCN(c1cc(-c2cnc3c(c2)NC(=O)C32CCOCC2)cc(C(=O)NCc2c(C)cc(C)[nH]c2=O)c1C)C1CCOCC1` [Example 101, N-((4,6-Dimethyl-2-oxo-1,2-dihydropyridin-3-yl)methyl)-3-(ethyl(tetrahydro-2H-pyran-4-yl)amino)-2-methyl-5-(2′-oxo-1′,2,2′,3,5,6-hexahydrospiro[pyran-4,3′-pyrrolo[3,2-b]pyridine]-6′-yl)benzamide]: the IC50 in data set [1] is 0.95 nM; in data set [2] (setting [8]), 0.82 nM; in data set [3] it was 0.57 nM; in data set [4] (setting [9]), 2.74 nM; in data set [5] (setting [10]), 3.68 nM; in data set [6] (setting [11]), 1.16 nM.

For the compound `CCN(c1cc(-c2ccc3c(c2)NC(=O)C32CCC(O)CC2)cc(C(=O)NCc2c(C)cc(C)[nH]c2=O)c1C)C1CCOCC1` (stereo not shown) [Example 94, N-((4,6-dimethyl-2-oxo-1,2-dihydropyridin-3-yl)methyl)-3-(ethyl(tetrahydro-2H-pyran-4-yl)amino)-5-(4-hydroxy-2′-oxospiro[cyclohexane-1,3′-dihydroindole]-6′-yl)-2-methylbenzamide], the IC50 is 0.73 nM in data set [1]; 0.77 nM in data set [2] (setting [8]); 0.62 nM in data set [3]; 3.83 nM in data set [4] (setting [9]); 4.74 nM in data set [5] (setting [10]); 1.31 nM in data set [6] (setting [11]).

In the case of `CCN(c1cc(-c2ccc3c(c2)C2(CCOCC2)C(=O)N3C)cc(C(=O)NCc2c(OC)cc(C)[nH]c2=O)c1C)C1CCN(CC(F)(F)F)CC1` [Example 123, 3-(Ethyl(1-(2,2,2-trifluoroethyl)piperidin-4-yl)amino)-N-((4-methoxy-6-methyl-2-oxo-1,2-dihydropyridin-3-yl)methyl)-2-methyl-5-(1-methyl-2-oxo-2′,3′,5′,6′-tetrahydrospiro[dihydroindole-3,4′-pyran]-5-yl)benzamide], the IC50 is 0.92 nM in data set [1]; 0.72 nM in data set [2] (setting [8]); 0.52 nM in data set [3]; 2.84 nM in data set [4] (data of 14th day, read-out: Pfeiffer Proliferation IC50 Nanomoles per Liter); 3.23 nM in data set [5] (data of 14th day, read-out: Karpas422 Proliferation IC50 Nanomoles per Liter); 1.15 nM in data set [6] (setting [11]).

For the compound `CCN(c1cc(-c2ccc3c(c2)NC(=O)C32CCC(=O)CC2)cc(C(=O)NCc2c(C)cc(C)[nH]c2=O)c1C)C1CCOCC1` [Example 92, N-((4,6-Dimethyl-2-oxo-1,2-dihydropyridin-3-yl)methyl)-5-(2′,4-dioxospiro[cyclohexane-1,3′-dihydroindole]-6′-yl)-3-(ethyl(tetrahydro-2H-pyran-4-yl)amino)-2-methylbenzamide], the IC50 is 0.68 nM in data set [1]; 0.57 nM in data set [2] (setting [8]); 0.37 nM in data set [3]; 1.83 nM in data set [4] (setting [9]); 2.83 nM in data set [5] (setting [10]); 0.87 nM in data set [6] (setting [11]).

Turning to `CCN(c1cc(-c2ccc3c(c2)NC(=O)C32CCOCC2)cc(C(=O)NCc2c(C)cc(C)[nH]c2=O)c1C)C1CCOCC1OC` (stereo not shown) [Example 102, N-((4,6-Dimethyl-2-oxo-1,2-dihydropyridin-3-yl)methyl)-3-((ethyl)(3-methoxytetrahydro-2H-pyran-4-yl)amino)-2-methyl-5-(2-oxo-2′,3′,5′,6′-tetrahydrospiro[dihydroindole-3,4′-pyran]-6-yl)benzamide], the IC50 in data set [1] was 0.89 nM; in data set [2] (setting [8]) it was 0.73 nM; in data set [3] it was 0.45 nM; in data set [4] (setting [9]) it was 3.45 nM; in data set [5] (setting [10]), 3.87 nM; in data set [6] (setting [11]), 0.96 nM.

In the case of `CCN(c1cc(-c2ccc3c(c2)NC(=O)C32CCOCC2)cc(C(=O)NCc2c(C)cc(C)[nH]c2=O)c1C)C1CCN(C)CC1` [Example 81, N-((4,6-dimethyl-2-oxo-1,2-dihydropyridin-3-yl)methyl)-3-(ethyl(1-methylpiperidin-4-yl)amino)-2-methyl-5-(2-oxo-2′,3′,5′,6′-tetrahydrospiro[dihydroindole-3,4′-pyran]-6-yl)benzamide], the IC50 in data set [1] is 0.89 nM; in data set [2] (setting [8]), 0.63 nM; in data set [3], 0.48 nM; in data set [4] (setting [9]), 4.73 nM; in data set [5] (setting [10]), 3.67 nM; in data set [6] (setting [11]), 1.37 nM.
